Laboratory results as given in patent publication US20230346810A1, “ENDOGENOUS STABILIZATION OF CANNABINOIDS” (Abstrax Tech Inc., priority 2022, published 2023).

Columns and labels:
[1] = Color change / oxidation of cannabinoid oils on exposure to air (visual); type: physicochemical; details: about 5% CBDA by weight added, homogenized under mild heat (about 70° C.)
[2] = UV-Visible spectroscopy of color purity of THC oils; type: physicochemical; details: 5% by weight CBDA added, versus sample without CBDA; FIG. 8
Protocol: The color purities of THC oils with and without acidic cannabinoids were measured using a LabTech BlueStar A UV-Vis Spectrophotometer. The data collection range was from 250 nm to 1100 nm at a scan rate of 3 nm per second. About 1 g of sample was added to scintillation vial followed by addition of 5 mL of ethanol. The solution was agitated for 2 min in order to fully dissolve the oil and transferred to a UV-Vis quartz cuvette. An ethanol background was collected prior to running the samples to reduce solvent.

SMILES	color of solution after CBDA addition [1]	visible absorption after CBDA addition (UV-Visible spectra) [2]
CCCCCc1cc(O)c2c(c1)OC(C)(C)[C@@H]1CCC(C)=C[C@@H]21 [Sample D9-THC, Δ^9-tetrahydrocannabinol]	yellow solution with minimal discoloration	
CCCCCc1cc(O)c2c(c1)OC(C)(C)[C@@H]1CC=C(C)C[C@@H]21 [Sample D8-THC, Δ8-tetrahydrocannabinol]		less visible absorption
